{"source": "patent US20260166182A1", "about": "“CYANINE-BASED FLUOROPHORES” (The General Hospital Corporation, priority 2022, published 2026)", "key": {"[1]": {"test_system": "lung carcinoma (LLC cell line)", "assay": "NIR-II fluorescence imaging of subcutaneous LLC tumor-bearing C57BL/6 mice", "type": "in vivo, mouse", "details": "for tumor targeting / tumor signal: intravenous, NIR-II imaging until 48 h post-injection", "source_text": "General NIR-II fluorescence imaging: A 640×512-pixel InGaAs camera (Ninox640, Raptor Photonics) and macro zoom lens (0-10×; Navitar Zoom 7000 with SWIR coating) along with 900, 1070, 1100, and 1200 nm long-pass (LP) filters from either Thorlab or Edmund optics were used to collect the NIR-II signal. InGaAs camera played a role as an open-air imaging system along with the support of the FLARE system. An 808 nm fiber-coupled diode laser ([…] at the sample) was used as an excitation source. Data acquisition was done using in-house developed software. […] Mice were imaged with intact skin using InGaAs camera. At least 3 mice were analyzed for each sample. Tumor-bearing mouse models: Animals were housed in an AAALAC-certified facility and were studied under the protocols approved by the MGH IACUC (2016N000136). Mice were maintained under anesthesia with isoflurane and oxygen during the experiment. To establish the various tumor-bearing mouse models including lung carcinoma, pancreatic ductal adenocarcinoma (PDAC), and triple negative breast adenocarcinoma, eight-week-old C57BL/6 mice (Taconic Farms, Germantown, NY) were subcutaneously injected with 2×10^5 LLC, Pan02, and E0771 cells suspended in DMEM/Matrigel (100 μL, 50 v/v %) in the flank region, respectively. Female C57BL/6 mice were used for the breast cancer (E0771) model, otherwise male mice were used. […] Statistical analysis: The fluorescence and background intensities of a region of interest over each tissue were quantified using customized imaging software and ImageJ v1.48 (National Institutes of Health, Bethesda, MD). The signal-to-background ratio (SBR) was calculated as SBR=fluorescence/background, where background was the fluorescence intensity of muscle. Data were reported as mean±s.e.m. with a minimum of three biological replicates. Student's t-test statistical analysis was performed to evaluate the significance of the experimental data. The differences among groups were determined using one-way ANOVA analysis to assess the statistical differences among more than two groups. […] The data was indicated with *p<0.05, ** p<0.01, *** p<0.001, and **** p<0.0001."}, "[2]": {"test_system": "immune cells from bone marrow and tumor tissues", "assay": "Flow cytometry analysis of fluorophore-targeted immune cells from bone marrow and tumor", "type": "in vivo, mouse", "details": "48 h post-injection", "experimental": "Flow cytometry analysis: Bone marrow tissue was mechanically dissociated and digested with collagenase D (175 unit/mL, Roche) and DNase I (100 unit/mL, Roche) followed by EDTA (2 mM, Invitrogen). Erythrocytes were removed using RBC Lysis Buffer (Invitrogen). Tumor tissue was mechanically dissociated and digested with collagenase I (175 unit/mL, Thermo-fisher), Collagenase IV (250 unit/mL, Thermo-fisher, 1700019), and DNase I (100 unit/mL) followed by EDTA ([…]). Immune cells were isolated from cell suspensions of the bone marrow or tumor tissue using Ficoll® Paque Plus (GE Healthcare). Isolated cells were stained with anti-mouse F4/80 (BM8, Biolegend, 123131), anti-mouse Ly-6G (1A8, Biolegend, 127639), anti-mouse Ly-6C(HK1.4, Biolegend, 128011), anti-mouse CD11c (N418, Biolegend, 117313), anti-mouse CD103 (2E7, Biolegend, 121425), anti-mouse I-A/I-E (M5/114.15.2 Biolegend, 107611), anti-mouse/human CD11b (M1/70, Biolegend, 101254) and anti-mouse CD45 antibodies (30-F11, Biolegend, 103105) conjugated to fluorophores. Isolated cells were stained with Live/dead®-Aqua (Life Technologies) to distinguish live cells. Stained cells were fixed using 1% paraformaldehyde prior to analysis. Data acquisition was performed on a Fortessa cytometer (BD) followed by analysis on FlowJo software (Tree Star)."}, "[3]": {"test_system": "LLC tumor", "assay": "Tumor histopathology with NIR fluorescence microscopy of resected LLC tumors", "type": "in vivo, mouse", "details": "histological NIR images", "experimental": "Tumor histopathology evaluation: […] After rinsing with PBS, the fixed sections were counterstained with nuclear fast red, dehydrated by ethanol, transferred into xylene, and finally mounted according to the standard protocol. To determine the tissue distribution of the NIR fluorophore, the dissected tissues were embedded in Tissue-Tek optimum cutting temperature compound (Sakura Finetek, Torrance, CA) without a pre-fixation step. The tissue block was frozen at −80° C. Frozen sections were cut at a thickness of 10 or 50 μm by a cryostat (Leica, Germany). Then, the tissue sections were stained with hematoxylin and eosin (H&E). The BioTek Cytation 5 (Winooski, VT) was used for pathological fluorescence imaging and observation."}, "[4]": {"test_system": "serum proteins, mostly albumin", "details": "cited from earlier work"}, "[5]": {"assay": "Photostability under xenon lamp irradiation", "type": "physicochemical", "details": "ethanol, xenon lamp 150 W, end of 2 h", "experimental": "Optical Study, Photostability, Physicochemical Properties, and DFT Calculation: 1 mM stock solution in DMSO of the synthesized fluorophores was prepared before starting any spectral measurement. Optical properties for the synthesized fluorophores were measured in four different solvents (EtOH, DMSO, HEPES, and PBS). Absorbance spectra were measured in a Varian Cary 50 absorbance spectrophotometer (190-1100 nm). Fluorescence emission and photostability were measured and emission spectra were recorded on a Shimadzu RF-5301PC spectrofluorometer. Physicochemical properties (Log D, molecular mass, TPSA, H bond D/A, polarizability, molecular volume, and rotatable bonds) were predicted by ChemAxon (JChem plugin). Theoretical calculations of frontier molecular orbitals (FMOs) for the optimized structures of selected fluorophores were calculated based on DFT calculations at the B3LYP/6-311G(d,p) level.\nIn consideration of theranostic (therapeutics and diagnostic) applications, NIR cyanine fluorophores are synthesized for fluorescence imaging, photodynamic therapy (PDT), photothermal therapy (PTT), optoacoustic imaging, and cancer immunotherapy. One of the approaches before using these fluorophores in those applications is to study their biodistribution and clearance pattern in vivo. […] The power density of 150 W is much higher than the required power for fluorescence imaging, considering that the time it takes for a fluorophore to clear from the background and accumulate in sufficient quantities in the targeted tissues is unknown. […] By considering this, an aliquot of the stock solution (1 mM in DMSO) was diluted in ethanol, and the fluorescence intensity was measured at the excitation wavelength same as their absorption maxima (nm). Photodegradation rates were measured every 20 min intervals for the selected fluorophores based on the % reduced fluorescence intensity starting from 100%. […] The data were collected in every 20 min intervals under continuous irradiation with a xenon lamp at 150 W for 2 h and presented based on the % reduced fluorescence intensity starting from 100%. […]"}, "[6]": {"test_system": "serum proteins, mostly albumin", "assay": "Serum protein binding kinetics (size exclusion column)", "type": "in vitro ADME", "details": "until 24 h incubation", "experimental": "FIG. 15 Reaction kinetics of SH1, ICG, and IR-780 to serum proteins, mostly albumin. 50 nmol of each dye was mixed with 1 ml of FBS/PBS (pH 7.4) 50/50 v/v %, incubated at 37° C., and analyzed using a BioResolve size exclusion column (200 Å, 2.5 μm, 7.8×300 mm). The binding percentage was calculated by dividing by absorbance of bound dye at 24 h assuming the dyes can bind in maximum capacity in the protein at 24 h."}, "[7]": {"details": "cited from earlier work"}}, "note": "“Also recorded” adds a separate entry of the source.", "data": [{"smiles": "CCCN1/C(=C/C=C2\\CCCC(/C=C/C3=[N+](CCC)c4ccccc4C3(C)C)=C2Cl)C(C)(C)c2ccccc21.[I-]", "note": "[IR-780]", "values": [{"measurement": "nonspecific background signal in biodistribution", "setting": "[1]; 4 h post-injection", "result": "High nonspecific background signal"}, {"measurement": "circulation in the blood stream", "setting": "[1]; 48 h post-injection", "result": "strong signals in the blood plasma; also recorded: circulating in the blood stream"}, {"measurement": "tumor signal intensity after skin removal", "setting": "[1]; 48 h post-injection", "result": "significantly decreased after skin removal"}, {"measurement": "tumor targeting / tumor signal", "setting": "[1]", "result": "accumulating in tumors at early time points around 4 h post-injection"}, {"measurement": "positively stained cells across distinct immune cell populations", "setting": "[2]; bone marrow", "result": "< 22", "unit": "%"}, {"measurement": "positively stained cells across distinct immune cell populations", "setting": "[2]; tumor", "result": "< 7", "unit": "%"}, {"measurement": "fluorescence signal location in resected tumor", "setting": "[3]", "result": "only present in the peritumoral region"}, {"measurement": "time to bind half of the maximum", "setting": "[4]", "result": "~2", "unit": "min"}]}, {"smiles": "CC1(C)C(/C=C/C=C/C=C/C=C2\\N(CCCCS(=O)(=O)O)c3ccc4ccccc4c3C2(C)C)=[N+](CCCCS(=O)(=O)[O-])c2ccc3ccccc3c21", "note": "[ICG, indocyanine green, reference compound]", "values": [{"measurement": "photodegradation (% reduced fluorescence intensity)", "setting": "[5]", "result": 41, "unit": "%"}, {"measurement": "reaction with serum proteins", "setting": "[6]", "result": "did not show any reactions with proteins until 24 h incubation"}, {"measurement": "tumor targeting / tumor signal", "setting": "[1]", "result": "did not show good tumor targeting"}, {"measurement": "clearance", "setting": "[1]; mouse, in vivo", "result": "fast hepatobiliary clearance"}, {"measurement": "reference quantum yield ΦICG", "setting": "[7]", "result": 0.043}, {"measurement": "positively stained cells across distinct immune cell populations", "setting": "[2]; bone marrow", "result": "< 8", "unit": "%"}, {"measurement": "positively stained cells across distinct immune cell populations", "setting": "[2]; tumor", "result": "< 14", "unit": "%"}, {"measurement": "fluorescence signal location in resected tumor", "setting": "[3]", "result": "barely present in the tumor"}]}]}
